# pEC50: −log10 of the molar value.
# Assays:
# Cannabinoid receptor 2 = Cannabinoid receptor 2 (Homo sapiens, UniProt P34972); assay: (§1) cAMP Assay: CHO cells expressing human CB1 or CB2 receptors are seeded 17-24 hours prior to the experiment 50.000 cells per well in a black 96 well plate with flat clear bottom (Corning Costar #3904) in DMEM (Invitrogen No. 31331), 1×HT supplement, with 10% fetal calf serum and incubated at 5% CO2 and 37 °C. in a humidified incubator. The growth medium was exchanged with Krebs Ringer Bicarbonate buffer with 1 mM IBMX and incubated at 30 °C. for 30 min. Compounds were added to a final assay volume of 100 μl and incubated for 30 min at 30 °C. Using the cAMP-Nano-TRF detection kit the assay (Roche Diagnostics) was stopped by the addition of 50 μl lysis reagent (Tris, NaCl, 1.5% Triton X100, 2.5% NP40, 10% NaN3) and 50 μl detection solutions (20 μM mAb Alexa700-cAMP 1:1, and 48 μM Ruthenium-2-AHA-cAMP) and shaken for 2 h at room temperature. The time-resolved energy transfer is measured by a TRF reader (Evotec Technologies GmbH), equipped with a ND:YAG laser as excitation source. The plate is measured twice with the excitation at 355 nm and at the emission with a delay of 100 ns and a gate of 100 ns, total exposure time 10 s at 730 (bandwidth 30 nm) or 645 nm (bandwidth 75 nm), respectively. The FRET signal is calculated as follows: FRET=T730-Alexa730-P(T645-B645) with P=Ru730-B730/Ru645-B645, where T730 is the test well measured at 730 nM, T645 is the test well measured at 645 nm, B730 and B645 are the buffer controls at 730 nm and 645 nm, respectively. cAMP content is determined from the function of a standard curve spanning from 10 μM to 0.13 nM cAMP.; format: functional, cell-based
# Cannabinoid receptor 2, sequence (P34972 whole entry): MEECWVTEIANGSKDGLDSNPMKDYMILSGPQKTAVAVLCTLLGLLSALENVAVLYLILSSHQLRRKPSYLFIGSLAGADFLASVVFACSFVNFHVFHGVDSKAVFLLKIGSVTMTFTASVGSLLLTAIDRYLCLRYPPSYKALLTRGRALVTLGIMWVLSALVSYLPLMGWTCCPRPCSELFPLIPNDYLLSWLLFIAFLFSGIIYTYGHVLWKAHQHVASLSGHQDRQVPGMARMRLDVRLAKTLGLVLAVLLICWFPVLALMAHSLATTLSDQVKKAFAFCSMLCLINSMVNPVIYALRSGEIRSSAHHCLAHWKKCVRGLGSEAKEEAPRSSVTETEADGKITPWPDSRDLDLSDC
# Cannabinoid receptor 1 = Cannabinoid receptor 1 (Homo sapiens, UniProt P21554); assay: as §1; format: functional, cell-based
# Cannabinoid receptor 1, sequence (P21554 whole entry): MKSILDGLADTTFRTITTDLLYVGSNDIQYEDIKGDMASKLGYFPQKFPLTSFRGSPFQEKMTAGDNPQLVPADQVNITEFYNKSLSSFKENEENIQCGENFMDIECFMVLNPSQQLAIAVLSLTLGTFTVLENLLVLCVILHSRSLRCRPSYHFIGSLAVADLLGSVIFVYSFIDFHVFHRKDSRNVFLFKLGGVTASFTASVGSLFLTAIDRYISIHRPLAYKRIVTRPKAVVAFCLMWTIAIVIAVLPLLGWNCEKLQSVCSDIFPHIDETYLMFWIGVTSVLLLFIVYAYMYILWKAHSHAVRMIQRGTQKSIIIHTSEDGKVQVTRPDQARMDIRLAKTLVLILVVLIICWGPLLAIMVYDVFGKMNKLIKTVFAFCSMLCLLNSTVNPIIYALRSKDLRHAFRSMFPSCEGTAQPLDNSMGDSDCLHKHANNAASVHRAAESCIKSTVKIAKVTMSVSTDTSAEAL
Structure (SMILES),pEC50 (Cannabinoid receptor 2),pEC50 (Cannabinoid receptor 1)
CC1(C)CC(C(N)=O)N(C(=O)c2ccc(N3CC(F)(F)C3)c(OCC3CC3)n2)C1 (stereo not drawn),8.18,–
CC(C)N(C(=O)c1ccc(N2CC(F)(F)C2)c(OCC2CC2)n1)C(C)C,7.90,< 5.00

# Source: ChEMBL document CHEMBL3886637, “Pyridine-2-amides useful as CB2 agonists” (2016)
